For data set [1], the target named is T1, Bifunctional epoxide hydrolase 2 (Homo sapiens) (UniProt P34913).
T1 sequence (whole entry): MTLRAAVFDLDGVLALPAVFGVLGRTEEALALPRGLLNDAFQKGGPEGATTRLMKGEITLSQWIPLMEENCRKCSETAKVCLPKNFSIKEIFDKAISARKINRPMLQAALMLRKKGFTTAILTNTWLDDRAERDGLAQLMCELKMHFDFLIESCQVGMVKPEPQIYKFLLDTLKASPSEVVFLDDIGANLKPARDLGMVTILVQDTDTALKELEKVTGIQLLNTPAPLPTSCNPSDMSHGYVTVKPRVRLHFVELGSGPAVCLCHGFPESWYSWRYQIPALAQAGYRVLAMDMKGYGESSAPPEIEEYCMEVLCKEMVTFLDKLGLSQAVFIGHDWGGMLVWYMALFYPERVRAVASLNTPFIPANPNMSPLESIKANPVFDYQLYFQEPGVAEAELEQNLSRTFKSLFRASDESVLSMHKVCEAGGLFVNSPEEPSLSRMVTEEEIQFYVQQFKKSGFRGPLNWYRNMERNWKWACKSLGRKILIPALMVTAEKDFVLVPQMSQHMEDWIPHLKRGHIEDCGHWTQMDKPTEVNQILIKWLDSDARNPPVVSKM
Description: Binding affinity to recombinant human C-terminal soluble epoxide hydrolase-hydrolase domain (222 to 555 residues) expressed in Escherichia coli BL21(DE3) assessed as change in melting temperature at 200 uM by SYPRO orange dye-based differential scanning fluorimetric analysis (Rvb = 57.0 +/- 0.0 degreeC)

A short description of data set [2]: Metabolic stability in Sprague-Dawley rat liver microsomes at 10 uM preincubated for 5 mins followed by NADPH addition and measured for 60 mins by HPLC analysis. It is filed as ADME, Microsome. As to conditions: read-out: Stability.
The target of data set [3] is T2, Bifunctional epoxide hydrolase 2 (Homo sapiens, UniProt P34913).
T2 sequence (P34913 whole entry): T1 sequence (whole entry)
The data set can be described thus: Inhibition of recombinant human full length soluble epoxide hydrolase (1 to 555 residues) expressed in Escherichia coli BL21(DE3) using non-fluorescent PHOME as substrate preincubated for 30 mins followed by substrate addition and measured after 30 mins by fluorescence based assay.

In data set [4] the target is Beta-1 adrenergic receptor (Homo sapiens, UniProt P08588). The data set can be described thus: Binding affinity to beta1 adrenergic receptor (unknown origin) by radioligand binding assay.
In data set [5] the target is Beta-2 adrenergic receptor (Homo sapiens, UniProt P07550). The data set can be described thus: Binding affinity to beta2 adrenergic receptor (unknown origin) by radioligand binding assay.
A further data set has as its system Rattus norvegicus. Put plainly: Antiallodynic activity in streptozocin-induced Sprague-Dawley rat of diabetic neuropathy model assessed as increase in mechanical withdrawal threshold at 10 mg/kg administered via oral gavage and measured for 3 to 4 times at 1 min interval by von Frey assay. It is filed as functional, organism-based.

Calls of active or inactive are those of the source.

What is called IC50 is the concentration needed to halve the response being measured. `CC(C)NCC(O)COc1cccc2ccccc12` (configuration not stated) [PROPRANOLOL]: the Tm in data set [1] was found to be 56.3 °C. The remaining at 1 h, 10 µM in data set [2] worked out at 37%. In data set [3], the IC50 result is recorded as “Not Active”.

As usually defined, the Ki is a dissociation constant, usually derived from enzyme kinetics or from competition with a known ligand. As to `CC(C)(C)NCC(O)COc1ccc(NC(=O)NC2CCCCC2)cc1` (configuration not stated) [TALINOLOL], the Ki is 240 nM in data set [4] and 900 nM in data set [5]. Moreover, the remaining at 1 h, 10 µM in data set [2] stood at 86%.

Turning to `CC(C)(C)N1CCOC(COc2ccc(NC(=O)NC3CCCCC3)cc2)C1` (configuration not stated), the Tm in data set [1] was 65.1 °C. Also, the result in data set [4] and in data set [5] was inactive. Further, the remaining at 1 h, 10 µM in data set [2] was 71%. Moreover, the IC50 in data set [3] (read-out: IC50) came to 77 nM. The outcome with Rattus norvegicus was Active.

The values above are taken from ChEMBL document CHEMBL4304765 (ACS Med Chem Lett, 2019).
